Paper PMC10622577, “Structural basis for stabilisation of the RAD51 nucleoprotein filament by BRCA2” (Nature Communications, 2023)

Test system: RAD51 NPFs on mSA-capped DNA
Assay: cryo-electron micrographs, bundling of RAD51 NPFs on mSA-capped DNA
Design: species or system human
Conditions: 1:0.5 molar ratio of TR2 peptide and mSA; ss- and dsDNA; two independent repeats
Excerpt: To understand the structural basis for the association of the BRCA2 C-terminus with the RAD51 nucleoprotein filament, we sought to determine the structure of a RAD51-DNA-TR2 filament by high-resolution cryo-electron microscopy (cryoEM). […] Individual filaments within a bundle appeared to be in translational register relative to each other as it was possible to obtain well-resolved 2D classes of filament pairs (Supplementary fig. 5A, Supplementary Table 1). Filament aggregation induced by TR2 complicated picking of individual filament particles and prevented structural determination by cryoEM. We therefore sought to develop a method to prepare RAD51 NPFs in the presence of TR2 peptide without causing filament bundling. We reasoned that bundling might be alleviated by capping the DNA substrate with a bulky tag, to prevent filament aggregation by steric interference. We therefore prepared ss- and dsDNA substrates with a biotin tag at either one end or both ends, that could be bound by monomeric streptavidin (mSA) (Supplementary Fig. 5B, Supplementary Table 1).
Fig. 2 BRCA2 TR2 induces bundling of RAD51 nucleoprotein filaments. A Cryo-electron micrographs of RAD51 NPFs formed on ssDNA and dsDNA in the presence of 1:0.5 molar ratio of TR2 peptide. Extensive NPF aggregation into bundles of aligned filaments is clearly visible (examples marked with dashed white boxes). Two independent repeats. […]

With “DDQKNCKKRRALDFLSRLPLPPPVSPICTFVSPAAQKAFQPPRSCGTKY [TR2, BRCA2 TR2 peptide spanning amino acids 3260 to 3308]” the “bundling of RAD51 NPFs on mSA-capped DNA” value was “no bundling in the presence of TR2”.
